Source: patent US10342806B2, “Hormone treatment for age-related hearing loss-presbycusis” (priority 2014, dated 2019)

How the values were obtained:
Assay type in all cases: cell-based, human
LC3-I, -II, and LAMP-2 = assay: Lysosome pathway markers in HT-29 cells, Western blot; conditions: ALD 1 μM, MG-132 20 μM, CQ 50 μM, 9 h
Procedure: FIG. 23(A) is a blot and showing ubiquitination, but not the lysosome pathway, is involved in the regulation of NKCC1 by ALD. To exclude the possibility that depletion of free ubiquitin by the prolonged MG-132 treatment triggered nonspecific inhibition of lysosome degradation of NKCC1 and investigate whether ALD is involved in a lysosome pathway, a parallel experiment with chloroquine (CQ) was performed. Here, the positive marks (+) indicate application of ALD (1 μM), MG132 (20 μM), CQ (50 μM), ALD+CQ, and MG132+CQ for 9 h. An autophagosome marker, autophagy-related gene 8 named as light chain 3 (LC3), and the lysosome-associated membrane protein 2 (LAMP-2) were used was indicators of lysosome pathway activation (phagocytic activity) under treatment with CQ.
Western blot. Cell lysates were prepared in RIPA buffer (Pierce 89901; Thermo Scientific, Waltham, Mass.) with protease inhibitor cocktail (78430; Thermo Scientific). Cell samples were homogenized in buffer, followed by centrifugation at 2,000 rpm for 10 min at 4° C. Supernatants were subjected to Western blot analysis by loading 200 μg of protein per lane, after the protein concentrations were determined by Bradford protein assay. Proteins were fractionated by SDS-PAGE gel electrophoresis and transferred to a PVDF blotting membrane (Whatman, Piscataway, N.J.). The blot was incubated with primary antibodies against β-actin and Na—K-2C1 cotransport protein (Cell Signaling, Danvers Mass.); primary antibodies for p-SGK1, SGK1, pNedd4-2, and Nedd4-2 were utilized (concentration 1:1,000). The secondary antibody was horseradish peroxidaseconjugated goat anti-rabbit IgG (1:2,000; Cell Signaling).
Ubiquitination, but not the lysosome pathway, is involved in NKCC1 induction by ALD. A parallel experiment was performed with chloroquine (CQ), a lysosome inhibitor, to exclude the possibility that prolonged MG-132 treatment depleted free ubiquitin by nonspecific inhibition of lysosome degradation of NKCC1 and to confirm whether or not ALD is involved in a lysosome pathway. […]

NKCC1 = assay: Tl-uptake in single HT-29 cells (FluxOR) for NKCC1 activity; conditions: 24 single HT-29 cells per condition
Text: Tl-uptake in single cells for the detection of NKCC1 activity. To measure NKCC1 activity, we used a fluorescence assay to assess cotransporter activity in single isolated HT-29 cells (Delpire & Austin, Kinase regulation of Na^+—K^+-2Cl^− cotransport in primary afferent neurons. J Physiol 588: 3365-3373, 2010, Geng, et al., The Ste20 kinases SPAK and OSR1 regulate NKCC1 function in sensory neurons. J Biol Chem 284: 14020-14028, 2009, Weaver, et al., A thallium-sensitive, fluorescence-based assay for detecting and characterizing potassium channel modulators in mammalian cells. J Biomol Screen 9: 671-677, 2004). HT-29 cells were incubated at 37° C./5% CO2 for 24 h before use. […] For the detection of fluorescence, the preincubation solution was removed, and the cells were treated with a 340.5 mosM hypertonic stimulus solution containing the following (in mM): (2.8 TISO4, 140 NaCl, 2 KCl, 2 CaCl2, 0.8 MgSO4, 5 glucose, 20 HEPES, 27 sucrose, 1 ouabain, and 2.7 probenecid) in the presence or absence of 20 μM bumetanide. […] FluxOR fluorescence (excitation/emission: 488/525 nm) was recorded after 90 s upon addition of 2.8 mM […] to the external medium. […]
Influence of ALD on NKCC1 transporter activity. […] To test this hypothesis, a more efficient and sensitive method, fluorescence Ion flux assays was adopted to measure NKCC1 transporter activity. […]

NKCC1 mRNA = NKCC1 mRNA in HT-29 cells, semiquantitative and real-time RT-PCR; conditions: ALD 1 μM, both RT-PCR methods
Procedure: Relative quantitative RT-PCR. Total RNA was extracted using the RNAeasy Mini Kit (Qiagen, Valencia Calif.). […] Primers used for qRTPCR were as follows: […]
The semiquantitative qRT-PCR reaction took place at 45° C. for 50 min. The competition between primer sets was excluded by adjusting the reaction condition.
Then, the primer products were PCR amplified directly. A first cycle of 10 min. at 95° C., 45 s at 65° C., and 1 min at 72° C. was followed by 45 s at 95° C., 45 s at 65° C., and 1 min at 72° C. for 25 cycles. The conditions were chosen so that the RNAs analyzed were in the exponential phase of amplification. Each set of reactions always included a no-sample negative control. We usually performed a negative control containing RNA instead of cDNA to rule out genomic DNA contamination.
The real-time RT-PCR reaction mixture was prepared using the SYBR-Green PCR Master Mix. Thermal cycling conditions were the same as in the semiquantitative method. Amplification specificity was checked using melting curves. Both negative and positive controls were included in each PCR reaction. All assays were carried out three times as independent PCR runs for each cDNA sample. […] Calculations of expression were performed with the […] method (Bustin, et al., Quantitative real-time RTPCR—a perspective. J Mol Endocrinol 34: 597-601, 2005).

## C[C@]12CCC(=O)C=C1CC[C@@H]1[C@@H]2[C@@H](O)C[C@]2(C=O)[C@@H](C(=O)CO)CC[C@@H]12 [ALD, aldosterone]
LC3-I, -II, and LAMP-2
  lysosome pathway markers LC3II and LAMP-2 expression levels: without increasing lysosome pathway markers
NKCC1
  bumetanide-sensitive Tl+ uptake fluorescence: marked increase in fluorescence
NKCC1 mRNA
  NKCC1 mRNA: no mRNA change
